Our source for the Emax values is patent publication US8664221B2 (Santen Pharmaceutical Co., Ltd., priority 2008, dated 2014).

The assay has as its system IL-6 production induced by lipopolysaccharide (LPS) in human corneal epithelial cells (HCE-T). Description: Inhibition of LPS-induced IL-6 production in human corneal epithelial cells (GR agonist activity). Conditions: Corneal epithelial cell, 10 μL of 100 μM test compound solution per well, 4 hours incubation, efficacy relative to DEX. Type of assay: cell-based. The protocol: In order to evaluate a GR agonist activity of the present compound, the inhibitory effects on the IL-6 production induced by lipopolysaccharide (LPS) in human corneal epithelial cells. IL-6 levels in the conditioned medium were measured using the HTRF human IL-6 Kit (boehringer-Ingelheim, Cat No. 62IL6PEB), and the procedure was carried out according to the protocol attached to the kit. Hereinafter, the specific method will be described.
LPS solution: After LPS was dissolved in phosphate buffer solution (hereinafter referred to as PBS(−)), the resulting solution was diluted with 10% FBS-DMEM/F12 medium, whereby a 1 μg/mL LPS solution was prepared.
After a test compound was dissolved in dimethylsulfoxide (hereinafter referred to as DMSO), the resulting solution was diluted with 10% FBS-DMEM/F12 medium, whereby a 100 μM test compound solution was prepared. A 100 μM DEX solution was prepared by the same method, and the inhibitory ratio of IL-6 production of DEX was evaluated to use for calculating efficacy (% DEX).
Used cell: SV40-immortalized human corneal epithelial cells (HCE-T) (RIKEN)
1) HCE-T cells were harvested, and seeded at 2.0×10^4 cells/0.1 mL/well in a 96-well plate.
2) After incubation overnight, the medium was removed and a 80 μL of new 10% FBS-DMEM/Ham's F12 medium was added into each well.
3) A 10 μL of test compounds solution was added into each well.
4) A 10 μL of LPS solution was added into each well.
5) As a negative control, a 10 μL of 10% FBS-DMEM/Ham's F12 medium was added into each well instead of a test compound solution and a LPS solution.
6) As a positive control, a 10 μL of 10% FBS-DMEM/Ham's F12 medium containing 1% DMSO was added into each well instead of a test compound solution.
7) After 4 hours incubation, supernatants were collected and IL-6 levels in the supernatants were quantitated using the HTRF human IL-6 Kit.
8) The inhibition ratio of IL-6 production (%) was calculated according to the following equation.
The inhibition ratio of IL-6 production (%) was calculated according to the following equation. The inhibition ratio of IL-6 production (%)=100×{1−(IL-6 level in each group−mean value of IL-6 level in negative control)/(mean value of IL-6 level in positive control−mean value of IL-6 level in negative control)} (%)
Furthermore, the inhibition ratio of IL-6 production (efficacy (% DEX)) was also calculated according to the following equation. Efficacy(% DEX)=100×{(mean value of IL-6 inhibition in compound-treated group)/(mean value of IL-6 inhibition in DEX-treated group)} (%) (Results and Discussion)

The term Emax denotes the maximal effect, on the per cent scale that the assay sets. Consider `COc1cc(OS(C)(=O)=O)ccc1-c1ccc2c(c1COc1cc([N+](=O)[O-])ccc1C)N(C)C(=O)C(C)(C)N2` [Compound No. 1-36, 7-(2-Methoxy-4-methylsulfonyloxyphenyl)-8-(2-methyl-5-nitro-phenoxymethyl)-1,3,3-trimethyl-3,4-dihydro-1H-quinoxalin-2-one], for which the maximal effect (Emax) was determined as 72%.
For `COc1cc(OS(=O)(=O)Cc2ccccc2Cl)ccc1-c1ccc2c(c1COc1cc(F)ccc1C)N(C)C(=O)C(C)(C)N2` [Compound No. 1-14, 7-[4-(2-Chlorobenzylsulfonyloxy)-2-methoxyphenyl]-8-(5-fluoro-2-methylphenoxymethyl)-1,3,3-trimethyl-3,4-dihydro-1H-quinoxalin-2-one], the maximal effect (Emax) was 86%.
Compound `COc1cc(OS(=O)(=O)CCCN2CCOCC2)ccc1-c1ccc2c(c1COc1cc(F)ccc1C)N(C)C(=O)C(C)(C)N2` [Compound No. 3-3, 8-(5-Fluoro-2-methylphenoxymethyl)-7-[2-methoxy-4-[3-(morpholin-4-yl)propylsulfonyloxy]phenyl]-1,3,3-trimethyl-3,4-dihydro-1H-quinoxalin-2-one] yielded an Emax of 85%.
The compound `CCCS(=O)(=O)Oc1ccc(-c2ccc3c(c2COC(=O)c2ccc(C)cc2)N(C)C(=O)C(C)(C)N3)c(OC)c1` [Compound No. 1-39, 7-(2-Methoxy-4-propylsulfonyloxyphenyl)-8-(4-methylbenzoyloxy-methyl)-1,3,3-trimethyl-3,4-dihydro-1H-quinoxalin-2-one] registered an Emax of 80%.
The compound `COc1cc(OS(=O)(=O)Cc2ccccc2C)ccc1-c1ccc2c(c1COc1cc(F)ccc1C)N(C)C(=O)C(C)(C)N2` [Compound No. 1-15, 8-(5-Fluoro-2-methylphenoxymethyl)-7-[2-methoxy-4-(2-methylbenzyl-sulfonyloxy)phenyl]-1,3,3-trimethyl-3,4-dihydro-IH-quinoxalin-2-one] displayed an Emax of 88%.
`COc1cc(OS(=O)(=O)C(C)C)ccc1-c1ccc2c(c1COc1cc([N+](=O)[O-])ccc1C)N(C)C(=O)C(C)(C)N2` [Compound No. 1-35, 7-(4-Isopropylsulfonyloxy-2-methoxyphenyl)-8-(2-methyl-5-nitro-phenoxymethyl)-1,3,3-trimethyl-3,4-dihydro-1H-quinoxalin-2-one] had an Emax of 79%.
For `COc1cc(OS(=O)(=O)CCl)ccc1-c1ccc2c(c1COc1cc(F)ccc1C)N(C)C(=O)C(C)(C)N2` [Compound No. 1-41, 7-(4-Chloromethylsulfonyloxy-2-methoxyphenyl)-8-(5-fluoro-2-methylphenoxymethyl)-1,3,3-trimethyl-3,4-dihydro-1H-quinoxalin-2-one] the value was 85%; for `COc1cc(OS(=O)(=O)CCC(F)(F)F)ccc1-c1ccc2c(c1COC(=O)c1ccc(C)s1)N(C)C(=O)C(C)(C)N2` [Compound No. 1-20, 7-[2-Methoxy-4-(3,3,3-trifluoropropylsulfonyloxy)phenyl]-8-(5-methylthiophen-2-ylcarbonyloxymethyl)-1,3,3-trimethyl-3,4-dihydro-1H-quinoxalin-2-one], 74%.
On to `COc1cc(OS(=O)(=O)CC(C)C)ccc1-c1ccc2c(c1COC(=O)c1ccc(C)s1)N(C)C(=O)C(C)(C)N2` [Compound No. 1-21, 7-(4-Isobutylsulfonyloxy-2-methoxyphenyl)-8-(5-methylthiophen-2-ylcarbonyloxymethyl)-1,3,3-trimethyl-3,4-dihydro-1H-quinoxalin-2-one], for which the Emax was found to be 71%.
In turn, `CCCNCCCS(=O)(=O)Oc1ccc(-c2ccc3c(c2COc2cc(F)ccc2C)N(C)C(=O)C(C)(C)N3)c(OC)c1` [Compound No. 3-2, 8-(5-Fluoro-2-methylphenoxymethyl)-7-[2-methoxy-4-(3-propylaminopropyl-sulfonyloxy)phenyl]-1,3,3-trimethyl-3,4-dihydro-1H-quinoxalin-2-one] gave a maximal response (Emax) of 70%.
The figure for `COc1cc(OS(=O)(=O)C2CC2)ccc1-c1ccc2c(c1COC(=O)c1ccc(C)s1)N(C)C(=O)C(C)(C)N2` [Compound No. 1-19, 7-(4-Cyclopropylsulfonyloxy-2-methoxyphenyl)-8-(5-methyl-thiophen-2-ylcarbonyloxymethyl)-1,3,3-trimethyl-3,4-dihydro-1H-quinoxalin-2-one] is 88%; for `CCCS(=O)(=O)Oc1ccc(-c2ccc3c(c2COc2cc([N+](=O)[O-])ccc2OC)N(C)C(=O)C(C)(C)N3)c(OC)c1` [Compound No. 1-31, 8-(2-Methoxy-5-nitrophenoxymethyl)-7-(2-methoxy-4-propyl-sulfonyloxyphenyl)-1,3,3-trimethyl-3,4-dihydro-1H-quinoxalin-2-one] it is 76%.
On to `COc1cc(OS(=O)(=O)C2CCCC2)ccc1-c1ccc2c(c1COc1cc([N+](=O)[O-])ccc1C)N(C)C(=O)C(C)(C)N2` [Compound No. 1-37, 7-(4-Cyclopentylsulfonyloxy-2-methoxyphenyl)-8-(2-methyl-5-nitrophenoxymethyl)-1,3,3-trimethyl-3,4-dihydro-1H-quinoxalin-2-one], for which the Emax stood at 74%.
As to `COc1cc(OS(C)(=O)=O)ccc1-c1ccc2c(c1COC(=O)c1ccc(C)s1)N(C)C(=O)C(C)(C)N2` [Compound No. 1-3, 7-(2-Methoxy-4-methylsulfonyloxyphenyl)-8-(5-methylthiophen-2-ylcarbonyloxymethyl)-1,3,3-trimethyl-3,4-dihydro-1H-quinoxalin-2-one], the maximum response (Emax) turned out to be 70%.
For `COc1cc(OS(=O)(=O)C2CCCCC2)ccc1-c1ccc2c(c1COc1cc(F)ccc1C)N(C)C(=O)C(C)(C)N2` [Compound No. 1-17, 7-(4-Cyclohexylsulfonyloxy-2-methoxyphenyl)-8-(5-fluoro-2-methylphenoxymethyl)-1,3,3-trimethyl-3,4-dihydro-1H-quinoxalin-2-one] the value was 83%; for `COc1cc(OS(=O)(=O)CCCCl)ccc1-c1ccc2c(c1COc1cc(F)ccc1C)N(C)C(=O)C(C)(C)N2` [Compound No. 1-40, 7-[4-(3-Chloropropylsulfonyloxy)-2-methoxyphenyl]-8-(5-fluoro-2-methylphenoxymethyl)-1,3,3-trimethyl-3,4-dihydro-1H-quinoxalin-2-one], 84%.
`COc1cc(OS(=O)(=O)CCCNCc2ccccc2)ccc1-c1ccc2c(c1COc1cc(F)ccc1C)N(C)C(=O)C(C)(C)N2` [Compound No. 3-1, 7-[4-(3-Benzylaminopropylsulfonyloxy)-2-methoxyphenyl]-8-(5-fluoro-2-methylphenoxymethyl)-1,3,3-trimethyl-3,4-dihydro-1H-quinoxalin-2-one]: the Emax turned out to be 78%.
For `COc1cc(OS(=O)(=O)C2CCCC2)ccc1-c1ccc2c(c1COC(=O)c1ccc(C)s1)N(C)C(=O)C(C)(C)N2` [Compound No. 1-24, 7-(4-Cyclopentylsulfonyloxy-2-methoxyphenyl)-8-(5-methylthiophen-2-ylcarbonyloxymethyl)-1,3,3-trimethyl-3,4-dihydro-1H-quinoxalin-2-one] the value was 85%; for `COc1ccc([N+](=O)[O-])cc1OCc1c(-c2ccc(OS(=O)(=O)C3CC3)cc2OC)ccc2c1N(C)C(=O)C(C)(C)N2` [Compound No. 1-30, 7-(4-Cyclopropylsulfonyloxy-2-methoxyphenyl)-8-(2-methoxy-5-nitrophenoxymethyl)-1,3,3-trimethyl-3,4-dihydro-1H-quinoxalin-2-one], 74%.
